Results on 1 compound are retold here after patent US20250098673A1, “COMPOSITIONS, MEANS AND METHODS FOR A NOVEL INSECT REPELLENT” (priority 2019, published 2025).

Each structure is given as a SMILES string.

Series [1] deals with Culex quinquefasciatus. In words: Arm-in-cage mosquito repellency test on human subjects (Protection Time). Conditions: mean of 5 subjects; Sano data obtained at a different time (historical comparison). The series is classed as in vivo. How it is done: In an embodiment of this invention, the insect repellent effect of a 20% DHA solution was studied. These studies were carried out at Poseidon Sciences Insect Control Laboratory (Miagao, Iloilo, Philippines), a breeding facility for C. quinquefasciatus, for research and development. The insect repellency of a DHA solution, comprising 20% DHA dissolved in a 30% ethanol aqueous solution, was compared to that of a Placebo solution, comprising 30% ethanol in water, as a negative control solution. As a positive control, the repellency of DHA was also compared to that of a commercial Sano insect repellent, a plant based repellent, using a composition of 20% of citrepel 75 dissolved in water. The placebo and the 20% DHA solution were kept in a refrigerator until the day of use. The samples were removed from the refrigerator and kept at room temperature for 3 hours before the tests were undertaken.
The above-mentioned solutions were then tested on a total of 10 subjects (age 19 to 44 comprising a total of 6 women and 4 men), all in good health. Each subject had signed an Informed Consent Form. This study had been approved by Poseidon Sciences IRB (Institutional Review Board). […]
Following application of the tested solution to the arm of the subject, testing was carried out as follows: a research scientist recorded the time of insertion of the arm into the cage and observed mosquito landing. […]

Series [2] concerns Whitefly (Bemisia tabaci). In words: Study 1: pest control experiment in cauliflower compared to Mospilan. The series is classed as in vivo. How it is done:
Whitefly (Bemisia tabaci), is a major pest, in many crops around the world. These pests are carriers of several virus diseases and are damaging the leaves and fruit with scratches and punch-and-suck activity. Furthermore, in cauliflower, excreting honeydew on the leaves and fruit, causes to mold development, which can disqualify the products for the market.
DHA was sprayed in two doses on cauliflower, for checking the effect on Whiteflies. These treatments were tested vs. a standard treatment (Mospilan) and a control treatment (not spraying): • DHA, 2.5% (aqueous solution) • DHA, 5% (aqueous solution) • Mospilan (Acetamiprid 200 g/L), 500 ml per hectare • Control (water spraying)
The experiment was implemented with 4 replicates for each treatment (randomly spread). Each replicate was 12 m long and 2 m width. Spraying volume was 40 L/Dunam. The solution for spraying was in a volume of 4 L.
Counting and statistics: Counting Whiteflies and Thrips was made on 20 leaves, selected randomly in each replicate. Variance analysis was made by Tukey-Kramer (α=0.05). Counting was performed every 7 days.

The conditions of series [3]: cited from earlier work.

With `O=C(CO)CO` [DHA, Dihydroxyacetone], the “Protection Time, Mean” value in series [1] was found to be 45 min. Moreover, in series [2] (adults, significant), the “reduction of mature Whitefly compared to control group” value is reported as around 65%. Further, the “reduction of young stage Whitefly (trend)” value in series [2] (young stage, trend) is on record as around 40%. For the same compound, in series [3] (SCCS report 2010), the carcinogenicity entry is given as “non-carcinogenic”, the irritancy entry is “non-irritant” and the “skin sensitization or photo sensitization” value was “did not cause skin sensitization or photo sensitization effects”. In addition, the systemic absorption entry in series [3] (application to skin) was “not systemically absorbed”. Moreover, the “safety of DHA sprays applied to skin” value in series [3] (concentrations of up to 10%, SCCS report 2010) is on record as “safe to use”.
